Reference: patent publication US10543212B2, “Substituted amines for treating cardiac diseases” (Cardurion Pharmaceuticals, LLC, priority 2017, dated 2020)

Target: T1, Full-length, GST-tagged, human CaMKIIδ (Homo sapiens, UniProt Q13557)
T1 construct: Full-Length, Glutathione-S-Transferase(GST)-Tagged, Human CaMKIIδ was purchased from Carna Biosciences; purchased Carna Biosciences 02-111
Assay: CaMKIIδ binding assay (TR-FRET with BODIPY-labeled probe ligand)
Procedure, shortened: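 Compounds were tested as 4-fold, eight-point series for 1 hr at room temperature, and IC50 was obtained by logistic fitting against a 3 μM parent-compound control. Signal came from displacement of a 300 nM BODIPY ligand from 0.5 nM GST-CaMKIIδ, detected via Tb-anti-GST in calmodulin/Ca2+ (pH 7.6).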

[1] = Table 2, CaMKIIδ binding assay, activity given as class A/B/C
[2] = CaMKIIδ binding assay, results of Table 2
[3] = CaMKIIδ binding assay, activity class per Table 2
[4] = Table 2, activity class for CaMKIIδ

T1 sequence (Q13557 1-478 isoform Q13557-12): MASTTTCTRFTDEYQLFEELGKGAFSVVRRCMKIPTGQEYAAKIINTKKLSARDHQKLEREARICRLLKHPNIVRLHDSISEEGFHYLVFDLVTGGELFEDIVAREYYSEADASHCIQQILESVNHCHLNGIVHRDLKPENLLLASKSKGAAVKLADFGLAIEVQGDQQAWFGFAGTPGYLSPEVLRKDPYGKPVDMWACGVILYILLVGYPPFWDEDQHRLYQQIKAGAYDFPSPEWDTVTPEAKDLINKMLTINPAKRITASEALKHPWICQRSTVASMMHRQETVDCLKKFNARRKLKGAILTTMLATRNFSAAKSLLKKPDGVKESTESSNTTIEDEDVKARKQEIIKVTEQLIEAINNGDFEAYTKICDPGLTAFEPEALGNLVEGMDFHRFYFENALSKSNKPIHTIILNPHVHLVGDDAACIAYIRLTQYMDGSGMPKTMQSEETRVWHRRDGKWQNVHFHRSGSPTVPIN

Q: Which IC50 [1] does the source give for C[C@@H](Cn1cnnn1)Oc1cc(-c2cnc(Nc3cn(CC(O)CO)nc3C(F)(F)F)nc2)ccc1Cl (stereo partly drawn) [Example 736, 3-(4-((5-(3-(((S)-1-(1H-tetrazol-1-yl)propan-2-yl)oxy)-4-chlorophenyl)pyrimidin-2-yl)amino)-3-(trifluoromethyl)-1H-pyrazol-1-yl)propane-1,2-diol] here?
A: Its IC50 is < 10 nM.

Q: How did the IC50 [2] turn out when COc1ccc(N2CCN(C3COC3)CC2)cc1Nc1ncc(-c2ccc(Cl)c(O[C@@H](C)Cn3cnnn3)c2)cn1 [Example 576, (S)-5-(3-((1-(1H-tetrazol-1-yl)propan-2-yl)oxy)-4-chlorophenyl)-N-(2-methoxy-5-(4-(oxetan-3-yl)piperazin-1-yl)phenyl)pyrimidin-2-amine] was run?
A: The IC50 was 10 to 100 nM.

Q: Which IC50 [2] does the source give for C[C@@H](Cn1cnnn1)Oc1cc(-c2cnc(Nc3cc4c(cc3Cl)CCN(C(=O)C(F)(F)F)CC4)nc2)ccc1C#N [Example 525, (S)-2-((1-(1H-tetrazol-1-yl)propan-2-yl)oxy)-4-(2-((8-chloro-3-(2,2,2-trifluoroacetyl)-2,3,4,5-tetrahydro-1H-benzo[d]azepin-7-yl)amino)pyrimidin-5-yl)benzonitrile] here?
A: The IC50 was 10 to 100 nM.

Q: For CC(Cn1cnnn1)Oc1cc(-c2cnc(Nc3cn(CC4(O)CCC(N5CCOCC5)CC4)nc3OCC(F)(F)F)nc2)ccc1Cl [Example 912, cis-1-((4-((5-(3-(((S)-1-(1H-tetrazol-1-yl)propan-2-yl)oxy)-4-chlorophenyl)pyrimidin-2-yl)amino)-3-(2,2,2-trifluoroethoxy)-1H-pyrazol-1-yl)methyl)-4-morpholinocyclohexan-1-ol], which IC50 [3] is on record?
A: Its IC50 is < 10 nM.

Q: With C[C@@H](Cn1cnnn1)Oc1cc(-c2cnc(Nc3cn([C@H]4CC[C@H](N5[C@@H]6CC[C@H]5COC6)CC4)nc3OCC(F)F)nc2)ccc1Cl [Example 844, 5-(3-(((S)-1-(1H-tetrazol-1-yl)propan-2-yl)oxy)-4-chlorophenyl)-N-(1-(trans-4-((1R,5S)-3-oxa-8-azabicyclo[3.2.1]octan-8-yl)cyclohexyl)-3-(2,2-difluoroethoxy)-1H-pyrazol-4-yl)pyrimidin-2-amine] as the molecule, how does the IC50 [1] read?
A: Its IC50 is < 10 nM.

Q: C[C@@H](Cn1cnnn1)Oc1cc(-c2cnc(Nc3cn([C@H]4CC[C@H](N5CC(C)(O)C5)CC4)nc3C(F)(F)F)nc2)ccc1Cl [Example 804, 1-(trans-4-(4-((5-(3-(((S)-1-(1H-tetrazol-1-yl)propan-2-yl)oxy)-4-chlorophenyl)pyrimidin-2-yl)amino)-3-(trifluoromethyl)-1H-pyrazol-1-yl)cyclohexyl)-3-methylazetidin-3-ol] was tested. Which IC50 [1] did it give?
A: The IC50 was < 10 nM.

Q: For C[C@@H](Cn1cnnn1)Oc1cc(-c2cnc(Nc3cn([C@@H](C)C(=O)N4CCOCC4)nc3C(F)(F)F)nc2)ccc1Cl [Example 761, (S)-2-(4-((5-(3-(((S)-1-(1H-tetrazol-1-yl)propan-2-yl)oxy)-4-chlorophenyl)pyrimidin-2-yl)amino)-3-(trifluoromethyl)-1H-pyrazol-1-yl)-1-morpholinopropan-1-one], which IC50 [1] is on record?
A: The IC50 was 10 to 100 nM.

Q: With COc1cc2c(cc1Nc1ncc(-c3ccc(Cl)c(O[C@@H](C)Cn4cnnn4)c3)cn1)CN(c1ccnc(C)n1)CC2 [Example 504, (S)-N-(5-(3-((1-(1H-tetrazol-1-yl)propan-2-yl)oxy)-4-chlorophenyl)pyrimidin-2-yl)-6-methoxy-2-(2-methylpyrimidin-4-yl)-1,2,3,4-tetrahydroisoquinolin-7-amine] as the molecule, how does the IC50 [2] read?
A: Its IC50 is 10 to 100 nM.

Q: How did the IC50 [4] turn out when COc1ccc(N2CCN(C(=O)CN(C)C)CC2)cc1Nc1ncc(-c2ccc(Cl)c(O[C@@H](C)Cn3cnnn3)c2)cn1 [Example 583, (S)-1-(4-(3-((5-(3-((1-(1H-tetrazol-1-yl)propan-2-yl)oxy)-4-chlorophenyl)pyrimidin-2-yl)amino)-4-methoxyphenyl)piperazin-1-yl)-2-(dimethylamino)ethan-1-one] was run?
A: Its IC50 is < 10 nM.

Q: For C[C@@H](Cn1cnnn1)Oc1cc(-c2cnc(Nc3cn(CC4CCN(C5COC5)C4)nc3C(F)(F)F)nc2)ccc1Cl (stereo partly drawn) [Example 574, 5-(3-(((S)-1-(1H-tetrazol-1-yl)propan-2-yl)oxy)-4-chlorophenyl)-N-(1-((1-(oxetan-3-yl)pyrrolidin-3-yl)methyl)-3-(trifluoromethyl)-1H-pyrazol-4-yl)pyrimidin-2-amine], which IC50 [2] is on record?
A: Its IC50 is < 10 nM.

Q: COc1cc2c(cc1Nc1ncc(-c3ccc(Cl)c(O[C@@H](C)Cn4cnnn4)c3)cn1)C(=O)N(CC1COC1)C2 [Example 445, (S)-6-((5-(3-((1-(1H-tetrazol-1-yl)propan-2-yl)oxy)-4-chlorophenyl)pyrimidin-2-yl)amino)-5-methoxy-2-(oxetan-3-ylmethyl)isoindolin-1-one] was tested. Which IC50 [2] did it give?
A: Its IC50 is 10 to 100 nM.

Q: For CCn1ncc(Nc2ncc(-c3ccc(Cl)c(O[C@@H](C)Cn4cnnn4)c3)cn2)c1C(=O)N1CCC(N2CCOCC2)CC1 [Example 880, (S)-(4-((5-(3-((1-(1H-tetrazol-1-yl)propan-2-yl)oxy)-4-chlorophenyl)pyrimidin-2-yl)amino)-1-ethyl-1H-pyrazol-5-yl) (4-morpholinopiperidin-1-yl)methanone], which IC50 [3] is on record?
A: The IC50 was ≥ 100 nM.

Q: With COc1cc2c(cc1Nc1ncc(-c3ccc(Cl)c(O[C@@H](C)Cn4cnnn4)c3)cn1)CCN(C=O)C2 [Example 471, (S)-6-((5-(3-((1-(1H-tetrazol-1-yl)propan-2-yl)oxy)-4-chlorophenyl)pyrimidin-2-yl)amino)-7-methoxy-3,4-dihydroisoquinoline-2(1H)-carbaldehyde] as the molecule, how does the IC50 [2] read?
A: Its IC50 is 10 to 100 nM.

Q: How did the IC50 [2] turn out when COCC(C)N1CCC(n2cc(Nc3ncc(-c4ccc(Cl)c(O[C@@H](C)Cn5cnnn5)c4)cn3)c(C(F)(F)F)n2)CC1 (stereo partly drawn) [Example 553, 5-(3-(((S)-1-(1H-tetrazol-1-yl)propan-2-yl)oxy)-4-chlorophenyl)-N-(1-(1-(1-methoxypropan-2-yl)piperidin-4-yl)-3-(trifluoromethyl)-1H-pyrazol-4-yl)pyrimidin-2-amine] was run?
A: The IC50 was < 10 nM.

Q: How did the IC50 [4] turn out when C[C@@H](Cn1cnnn1)Oc1cc(-c2cnc(Nc3cn(C4CCN(C5CCOCC5)CC4)nc3OC(F)F)nc2)ccc1Cl [Example 664, (S)-5-(3-((1-(1H-tetrazol-1-yl)propan-2-yl)oxy)-4-chlorophenyl)-N-(3-(difluoromethoxy)-1-(1-(tetrahydro-2H-pyran-4-yl)piperidin-4-yl)-1H-pyrazol-4-yl)pyrimidin-2-amine] was run?
A: Its IC50 is < 10 nM.

Q: For C[C@@H](Cn1cnnn1)Oc1cc(-c2cnc(Nc3cn(CS(C)(=O)=O)nc3C(F)(F)F)nc2)ccc1Cl [Example 848, (S)-5-(3-((1-(1H-tetrazol-1-yl)propan-2-yl)oxy)-4-chlorophenyl)-N-(1-((methylsulfonyl)methyl)-3-(trifluoromethyl)-1H-pyrazol-4-yl)pyrimidin-2-amine], which IC50 [1] is on record?
A: The IC50 was < 10 nM.

Q: With Cc1ccc(-c2cnc(Nc3cn([C@H]4CC[C@H](N5CCOCC5)CC4)nc3C(F)(F)F)nc2)cc1O[C@@H](C)Cn1cnnn1 [Example 810, 5-(3-(((S)-1-(1H-tetrazol-1-yl)propan-2-yl)oxy)-4-methylphenyl)-N-(1-(trans-4-morpholinocyclohexyl)-3-(trifluoromethyl)-1H-pyrazol-4-yl)pyrimidin-2-amine] as the molecule, how does the IC50 [1] read?
A: The IC50 was < 10 nM.

Q: How did the IC50 [3] turn out when C[C@@H](Cn1cnnn1)Oc1cc(-c2cnc(Nc3cn(CC4(O)CCOCC4)nc3OCC(F)(F)F)nc2)ccc1Cl [Example 886, (S)-4-((4-((5-(3-((1-(1H-tetrazol-1-yl)propan-2-yl)oxy)-4-chlorophenyl)pyrimidin-2-yl)amino)-3-(2,2,2-trifluoroethoxy)-1H-pyrazol-1-yl)methyl)tetrahydro-2H-pyran-4-ol] was run?
A: Its IC50 is < 10 nM.
